The record followed here is patent US20240002332A1, “Small Molecule Inhibitors of SARS-CoV-2 Infections” (priority 2020, published 2024).

Data set [1] is described as follows: Rat liver microsomal (RLM) stability. The settings on record: rat, microsomes.
Data set [2] in a line: Parallel artificial membrane permeability assay (PAMPA). The settings on record: PAMPA, Tier I ADME.
In another data set the test system is Vero-E6. The data set is described as follows: Cytotoxicity counter screen (cell viability, CellTiter-Glo). The settings on record: for IC50: Chlorocebus sabaeus, read-out: IC50 (μM) cell viability. The format is cell-based. The method, then:
Compound cytotoxicity was assessed in a BSL-2 counter screen as follows: Cell culture media (MEM, 1% Pen/Strep/GlutaMax, 1% HEPES, 2% HI FBS) was dispensed at 5 μl/well into ARPs and incubated at room temperature to allow for compound dissolution. Vero-E6 (selected for high ACE2 expression) was dispensed into assay plates at 4000 cells/well in 25 μl media. Assay plates were incubated for 72 h at 37 C, 5% CO2, 90% humidity. Then, 30 μl/well of CellTiter-Glo (Promega #G7573) was dispensed into the assay plate. Luminescence was read using a BMG PHERAstar plate reader following incubation at room temperature for 10 min to measure cell viability.

A further data set deals with SARS-CoV-2. Nature of the data set: SARS-CoV-2 viral titer in human bronchial epithelial cells (HBEC; EpiAirway). In kind it is cell-based. Particulars: dilutions 0.01, 0.1, 1, 10 micrograms per mL. As for the experimental part:
In the first part of the experiment, the test compounds were diluted in Assay medium (AIR-100-ASY). The test compound dilutions (0.01, 0.1, 1, 10 micrograms per mL) were added to each insert on the apical layer (0.15 mL) and basal layer (0.85 mL). Following the 1 h treatment, the apical medium was removed, and the basal side was replaced with fresh compound. Virus (0.15 mL) was then added to each insert on the apical layer, removed after 1 h and washed with 0.4 mL TEER buffer. The basal side medium/compound was replaced with 1 mL of Assay medium. Every twenty-four hours, the apical layer of the tissues were washed with 0.4 mL of TEER buffer and aliquoted to separate microfuge tubes. Trizol LS (1.2 mL) was added to each tube, pipetted up and down several times and stored at −80° C. The basal layer supernatant (1 mL) was collected from each well, aliquoted into separate microfuge tubes and stored at −80° C. The basal side medium was replaced with 1 mL of Maintenance Medium.
In the second part of the experiment, RNA was isolated from the trizol samples and the supernatants from all treatments were tittered by plaque assay or TCID50 to determine the amount of virus present in each sample.

Another data set can be described thus: in vitro. Particulars: rat, microsomes.
Where [3] appears, read: uninfected Vero-E6, 72 h, CellTiter-Glo.

Each structure is given as a SMILES string. Like-named read-outs stand apart in the source and are kept apart here.

For `O=C(Nc1ccc([N+](=O)[O-])cc1Cl)c1cc(Br)ccc1O` [Compound 6, 5-bromo-N-(2-chloro-4-nitrophenyl)-2-hydroxybenzamide], the half-life in data set [1] was > 30 min. In addition, the Permeability in data set [2] is 67 10^−6 cm/sec. For the same molecule, the IC50 in the data set on Vero-E6 (Vero C1008, 72 h) worked out at 0.4 µM. The Efficacy cell viability with Vero-E6 (setting [3]) is listed as −94.8. Also, the “inhibition of SARS-CoV-2 (viral titer)” value with SARS-CoV-2 is “effectively inhibited SARS-CoV-2 in human bronchial epithelial cells at sub-nanomolar and nanomolar concentrations”.

Consider `O=C(Nc1ccc(C(F)(F)F)c(F)c1)c1cc(Br)ccc1O` [Compound 59, 5-bromo-N-(3-fluoro-4-(trifluoromethyl)phenyl)-2-hydroxybenzamide], for which the half-life in “in vitro” is > 30 min. Besides, the IC50 with Vero-E6 (Vero C1008, uninfected Vero-E6, 72 h, CellTiter-Glo) turned out to be 0.45 µM. Besides, the Efficacy cell viability with Vero-E6 (setting [3]) was −91.7.
